Where “and” joins values, the source holds several entries; their conditions need not be identical. Equal values may be shown once. Where a name gives a salt, the structure may show the parent alone.
How the values were obtained:
[1] = tested on: women whose ovulation is irregular or absent; conditions: cited from earlier work
[2] = Glycemia study (blood glucose after 6 hours of fasting, glucose sensor); assay type: in vivo, mouse; conditions: for glycemia, Average: average of 6 IRS2−/− female mice; for variation in glycemia during administration: first 12 days of treatment, IRS2−/− female mice; for variation in glycemia during administration / glycemia: dihydrate; for glycemia: individual IRS2−/− female mice
Method: (§1) 6 IRS2^−/− female mice of ages comprised between 6 and 8 weeks.
(§2) The female mice were housed in normal conditions, i.e., 12-hour light/darkness cycle and controlled moisture and temperature. The animals were voluntarily fed (also named ad libitum) with a standard feed diet.
(§3) After a period of acclimation, sodium tungstate was administered in the drinking water (ad libitum) by means of a 2 mg/ml solution of sodium tungstate dihydrate (marketed by Carlo Erba) in distilled water after the pre-treatment phase (day 0 of treatment) and for 12 days.
(§4) Body weight was monitored on day 0, 2, 5, 7, 9 and 12 of the treatment period, and after 6 hours of fasting on each of the aforementioned days blood glucose was determined by means of withdrawing blood from the tail vein and with a glucose sensor (Roche AccuTrend Glucose Sensor. Mannheim, Germany).

[3] = tested on: IRS2−/− female mice; assay: Implantation and pregnancy study after mating with IRS2wt male mice; assay type: in vivo, mouse; conditions: for mean number of young/implanted embryos per female mouse pregnancy: treated IRS2−/− female mice
Source text: (§5) 10 IRS2^−/− female mice of ages comprised between 6 and 8 weeks. 6 “wild-type” (IRS2^wt) male mice of ages comprised between 6 and 8 weeks.
(§6) The female and male mice were housed separately in normal conditions, i.e., 12-hour light/darkness cycle and controlled moisture and temperature. The animals were voluntarily fed (also named ad libitum) with a standard feed diet.
(§7) After a period of acclimation, the IRS2^−/− female mice were housed in groups of 4-6 mice/cage. Tungstate-free drinking water was administered to the animals during the pre-treatment phase (2 weeks).
(§8) Sodium tungstate was administered in the drinking water (ad libitum) by means of a 2 mg/ml solution of sodium tungstate dihydrate (marketed by Carlo Erba) in distilled water after the pre-treatment phase (day 0 of treatment) and up to 4 weeks before sacrificing the animals. The daily dose of sodium tungstate ingested by the mice is about 180 mg/kg of body weight.
After the first three weeks of treatment, the IRS2^−/− female mice were housed in cages in pairs together with an IRS2^wt male mouse continuously.
The mice were observed daily in search of signs of pregnancy or birth. After 4 weeks, the male mice were exchanged between the cages and kept in said cages for another 4 weeks.
The administration of tungstate was maintained for the 8 weeks in which the male and female mice were housed together. After these 8 weeks, treatment was withdrawn and the male and female mice were housed together for 4 additional weeks.
After this period lapsed, the female mice were sacrificed and biopsied in search of indications of pregnancy.
After the mating period of the method in section B lapsed, the female mice were sacrificed and biopsied in search of indications of pregnancy.

[4] = Body weight study; assay type: in vivo, mouse; conditions: for Body weight, Average: average of 6 IRS2−/− female mice; for variation in body weight during administration: first 12 days of treatment, IRS2−/− female mice; for variation in body weight during administration / Body weight: dihydrate; for Body weight: individual IRS2−/− female mice
Method: as §1, §2, §3, §4

[5] = tested on: female rats with streptozotocin-induced diabetes; conditions: cited from earlier work
[6] = tested on: IRS2−/− female mice; assay: Ovulation study: phase of the estrous cycle by vaginal smears (Papanicolaou); assay type: in vivo, mouse; parameters: key to phase of the estrous cycle: A: anestrus; D: diestrus; P: proestrus; E: estrus; M: metestrus; conditions: for phase of the estrous cycle: individual IRS2−/− female mice, dihydrate
Source text: as §5, §6, §7, §8
During the pre-treatment period and during the first 3 weeks of treatment, vaginal smears were performed in 6 randomly chosen female mice on days −8; −5; −2; −1; 7; 8; 14; 15 and 22 to determine the phase of the estrous cycle they were in.
Between […] of saline solution was introduced into the vagina of the mice with a Pasteur pipette. The vaginal exudate was collected with the same pipette and deposited on a slide. Once air-dried, it was fixed and stained with the Papanicolaou technique.
The Papanicolaou technique comprises staining the vaginal smears fixed on the slide as follows: • 10 immersions in 50% v/v alcohol; • immersing in Harris hematoxylin solution for 3 minutes; • rinsing with running water; • 10 immersions in acid alcohol (1% hydrochloric acid); • rinsing with running water; • 10 immersions in 95% v/v alcohol; • immersing in OG-6 solution for 30 seconds; • 10 immersions in 96% v/v alcohol; • immersing in eosin solution for 1 minute; • 10 immersions in 96% v/v alcohol; • 10 immersions in 86% v/v alcohol; and • 10 immersions in xylol.
The preparations were analyzed by trained staff using a code in a single-blind manner to eliminate observer bias.
The samples were identified in the following phases: diestrus, proestrus, estrus, metestrus, anestrus or non-evaluable. The cyclicality of the four phases in periods of 4 to 6 days is an indicator of a normal estrous cycle, whereas the absence of this cyclicality and the persistence in anestrus, diestrus or proestrus phases are indicators of the absence of the estrous cycle.

[7] = individual treated IRS2−/− female mice, dihydrate

Which pregnancy rate [1] does the source give for `CCN(CC)CCOc1ccc(C(=C(Cl)c2ccccc2)c2ccccc2)cc1` [clomiphene citrate] here?
The pregnancy rate was at most 50%.

What about the restoring ovulation [1] of the same compound?
The restoring ovulation was “high percentage”.

With `O.O.[Na+].[Na+].[O]=[W](=[O])([O-])[O-]` [sodium tungstate, sodium tungstate dihydrate] as the compound, how does the “glycemia, Average” value ([2]; Day 0 (start of treatment)) read?
The value was 128.17 mg/dL.

What about the “glycemia, Average” value ([2]; Day 2) of the same compound?
The value was 117.33 mg/dL.

And the “glycemia, Average” value ([2]; Day 5)?
Its value is 122.33 mg/dL.

What about the “glycemia, Average” value ([2]; Day 7) of the same compound?
Its value is 118.83 mg/dL.

And the “glycemia, Average” value ([2]; Day 9)?
The value was 125.17 mg/dL.

What about the “glycemia, Average” value ([2]; Day 12) of the same compound?
The value was 118.83 mg/dL.

And the “variation in glycemia during administration” value [2]?
Its value is “no variations are observed”.

And the “variation in glycemia during administration” value ([2]; listed as tungsten (VI) salt)?
Its value is “does not modify”.

What about the glycemia ([2]; Day 0 (start of treatment), 6 h fasting) of the same compound?
The glycemia was 146 mg/dL and 129 mg/dL and 115 mg/dL and 126 mg/dL and 141 mg/dL and 112 mg/dL.

And the glycemia ([2]; Day 2, 6 h fasting)?
Its glycemia is 136 mg/dL and 128 mg/dL and 118 mg/dL and 110 mg/dL and 105 mg/dL and 107 mg/dL.

What about the glycemia ([2]; Day 5, 6 h fasting) of the same compound?
The glycemia was 125 mg/dL and 142 mg/dL and 114 mg/dL and 111 mg/dL and 137 mg/dL and 105 mg/dL.

What about the glycemia ([2]; Day 7, 6 h fasting) of the same compound?
Its glycemia is 140 mg/dL and 110 mg/dL and 106 mg/dL and 89 mg/dL and 133 mg/dL and 135 mg/dL.

And the glycemia ([2]; Day 9, 6 h fasting)?
Its glycemia is 125 mg/dl (2×) and 153 mg/dl and 109 mg/dl and 108 mg/dl and 131 mg/dl.

And the glycemia ([2]; Day 12, 6 h fasting)?
Its glycemia is 136 mg/dL and 116 mg/dL and 111 mg/dL and 86 mg/dL and 123 mg/dL and 141 mg/dL.

And the Pregnancy ([3]; individual treated IRS2−/− female mice, mated with IRS2wt males, dihydrate)?
Its Pregnancy is “YES”.

And the “Number of implanted embryos or young born (embryos)” value [3, 7]?
The value was 7 embryos (3×) and 6 embryos.

What about the “Number of implanted embryos or young born (young)” value [3, 7] of the same compound?
The value was 8 young (2×) and 1 young and 3 young.

What about the pregnancy rate ([3]; treated IRS2−/− female mice (untreated 9%)) of the same compound?
Its pregnancy rate is 80%.

What about the “mean number of young/implanted embryos per female mouse pregnancy” value ([3]; dihydrate) of the same compound?
The value was “about 5”.

And the “mean number of young/implanted embryos per female mouse pregnancy” value ([3]; listed as tungsten (VI) salt, dihydrate)?
The value was 5.

What about the “Body weight, Average” value ([4]; Day 0 (start of treatment)) of the same compound?
Its value is 17.03 g.

And the “Body weight, Average” value ([4]; Day 2)?
The value was 17.33 g.

And the “Body weight, Average” value ([4]; Day 5)?
Its value is 16.97 g.

And the “Body weight, Average” value ([4]; Day 7)?
Its value is 16.84 g.

What about the “Body weight, Average” value ([4]; Day 9) of the same compound?
The value was 17.35 g.

What about the “Body weight, Average” value ([4]; Day 12) of the same compound?
The value was 17.72 g.

And the “variation in body weight during administration” value [4]?
The value was “no variations are observed”.

And the “variation in body weight during administration” value ([4]; listed as tungsten (VI) salt)?
Its value is “does not modify”.

What about the Body weight ([4]; Day 0 (start of treatment)) of the same compound?
Its Body weight is 22.7 g and 15.33 g and 18.21 g and 16.5 g and 13.99 g and 15.45 g.

What about the Body weight ([4]; Day 2) of the same compound?
The Body weight was 22.9 g and 14.84 g and 18.98 g and 17.01 g and 14.18 g and 16.04 g.

And the Body weight ([4]; Day 5)?
The Body weight was 22.61 g and 14.89 g and 18.2 g and 16.61 g and 13.79 g and 15.72 g.

What about the Body weight ([4]; Day 7) of the same compound?
Its Body weight is 22.42 g and 15.07 g and 17.81 g and 16.35 g and 13.74 g and 15.66 g.

And the Body weight ([4]; Day 9)?
Its Body weight is 22.85 g and 15.56 g and 17.9 g and 16.89 g and 14.5 g and 16.39 g.

And the Body weight ([4]; Day 12)?
Its Body weight is 23.15 g and 15.91 g and 18.24 g and 17.19 g and 14.92 g and 16.89 g.

What about the circulating insulin levels ([5]; rats with streptozotocin-induced insulinopenia and diabetes, prolonged treatment (10 weeks)) of the same compound?
Its circulating insulin levels is “partially recover”.

What about the “percentage of births with respect to the number of positive curettages” value ([5]; streptozotocin-diabetic females after 10 weeks of treatment, mated with healthy males (non-diabetic 100%)) of the same compound?
The value was 66%.

And the “phase of the estrous cycle” value ([6]; day 7 of treatment, 2 mg/ml in drinking water (about 180 mg/kg/day))?
Its value is “M and E (4×) and E-M”.

What about the “phase of the estrous cycle” value ([6]; day 8 of treatment, 2 mg/ml in drinking water) of the same compound?
The value was “M and E-M (3×) and E (2×)”.

What about the “phase of the estrous cycle” value ([6]; day 14 of treatment, 2 mg/ml in drinking water) of the same compound?
The value was “E and E-M (3×) and D”.

And the “phase of the estrous cycle” value ([6]; day 15 of treatment, 2 mg/ml in drinking water)?
Its value is “D and E (2×) and M (2×) and A”.

What about the “phase of the estrous cycle” value ([6]; day 22 of treatment, 2 mg/ml in drinking water) of the same compound?
Its value is “D (2×) and A (2×) and M and P”.

And the “recovery of the estrous cycle, percentage of analyzed mice” value ([6]; infertile non-diabetic IRS2−/− female mice, on the seventh day of treatment)?
Its value is 100%.
